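Dose response: 5 concentrations. Exposure: 48 h. Format: 96-well plates. Endpoint: linear interpolation; highest concentration if not reached. The concentration for full growth arrest is given as TGI.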 Where a SMILES comes first, the peptide text is derived from it. The star is where a group is joined. Bn = c1ccc(C*)cc1 Where only a bound is given, the exact number is not on record here.

Test systems include NCI-H23 lung; ACHN renal; SNB-75 CNS; SW-620 colon; MOLT-4 leukemia; KM12 colon; SNB-19 CNS; T-47D breast; SK-MEL-5 melanoma; UACC-257 melanoma.
Assay in all cases: NCI anticancer screen, dose series, 48 h

As for `COc1c(O)c(O)cc2c1-c1ccc(OC)c(=O)cc1C(NC(C)=O)CC2` (stereo not given), the TGI with NCI-H23 lung is 34.2 µM; with ACHN renal, more than 96.5 µM; with SNB-75 CNS, 63.9 µM; in the assay on SW-620 colon it was 63.3 µM; in the assay with MOLT-4 leukemia it was 43.6 µM; in the assay with KM12 colon, 33 µM. Also, the TGI was more than 100 µM in the assay with SNB-19 CNS, more than 100 µM in the assay with T-47D breast, 11.3 µM with SK-MEL-5 melanoma and 76.9 µM in the assay on UACC-257 melanoma.

Regarding `COc1ccc(N=Nc2c3c(c(O)c4ccccc24)CCC(C)(C)O3)cc1`, the TGI was 34.4 µM in the assay with NCI-H23 lung; 32.4 µM in the assay with ACHN renal; 52.9 µM in the assay with SNB-75 CNS; more than 100 µM with SW-620 colon; more than 100 µM in the assay on MOLT-4 leukemia; 29.5 µM in the assay with KM12 colon. Also, the TGI in the assay on SNB-19 CNS was determined as 50.4 µM; in the assay with T-47D breast, 25.2 µM; in the assay on SK-MEL-5 melanoma it was 24.9 µM; in the assay on UACC-257 melanoma, 37.5 µM.

As for `CC12CC1C(c1cccc([N+](=O)[O-])c1)(c1cccc([N+](=O)[O-])c1)N=N2` (stereo not given), the TGI was 51.5 µM with NCI-H23 lung; 29.4 µM with ACHN renal; more than 100 µM in the assay with SNB-75 CNS; more than 100 µM with SW-620 colon; more than 100 µM in the assay with MOLT-4 leukemia; 47.3 µM with KM12 colon. The TGI in the assay on SNB-19 CNS, in the assay with T-47D breast, in the assay with SK-MEL-5 melanoma and in the assay on UACC-257 melanoma was more than 100 µM each time.

For the compound `Cn1ccnc1Sc1ccc(C=Nc2ccc3nc(SCC(=O)NC4CCCCC4)sc3c2)cc1[N+](=O)[O-]`, the TGI in the assay with NCI-H23 lung is more than 100 µM; in the assay with ACHN renal it was more than 100 µM; in the assay on SNB-75 CNS, 8.84 µM; in the assay on SW-620 colon, more than 100 µM; with MOLT-4 leukemia, more than 100 µM; in the assay with KM12 colon it was more than 100 µM. The TGI was 55.9 µM with SNB-19 CNS, more than 100 µM with T-47D breast, more than 100 µM in the assay on SK-MEL-5 melanoma and more than 100 µM in the assay with UACC-257 melanoma.

With `COc1ccccc1N1CCN(CCCNC(=O)c2cc(Cl)c(N)c(Cl)c2)CC1`, the TGI was more than 100 µM in the assay with NCI-H23 lung; more than 100 µM in the assay on ACHN renal; more than 100 µM in the assay with SNB-75 CNS; more than 100 µM in the assay with SW-620 colon; 92.6 µM in the assay on MOLT-4 leukemia; more than 100 µM with KM12 colon. Moreover, the TGI with SNB-19 CNS was more than 100 µM; with T-47D breast, more than 100 µM; with SK-MEL-5 melanoma, 33.2 µM; with UACC-257 melanoma, 47.8 µM.

Consider `COc1cc(CNc2nc3cc(C(F)(F)F)ccc3nc2-c2ccccc2)cc(OC)c1OC`, for which the TGI is more than 100 µM in the assay on NCI-H23 lung; more than 100 µM in the assay on ACHN renal; 44 µM with SNB-75 CNS; more than 100 µM in the assay with SW-620 colon; more than 100 µM with MOLT-4 leukemia; 53 µM in the assay on KM12 colon. Moreover, the TGI was more than 100 µM in the assay with SNB-19 CNS, 6.62 µM in the assay with T-47D breast, 73.3 µM in the assay with SK-MEL-5 melanoma and more than 100 µM with UACC-257 melanoma.

Take `O=C(O)c1ccc2c(c1)CC1(C2)Cc2cc3c(cc2C1=O)CCC3` (stereo not given): the TGI in the assay on NCI-H23 lung, with ACHN renal, with SNB-75 CNS, in the assay on SW-620 colon, in the assay with MOLT-4 leukemia and in the assay on KM12 colon was more than 100 µM each time. Also, the TGI in the assay on SNB-19 CNS, in the assay on T-47D breast, in the assay on SK-MEL-5 melanoma and in the assay on UACC-257 melanoma was more than 100 µM in each case.

`CC1=C[C@@H](C)C[C@]2(C)CC[C@H](O2)[C@]23CC[C@](C(=O)O)(C[C@H](O2)[C@@H]2O[C@@](C)(CC2=O)[C@@H](O)[C@H]2CC[C@@]4(CCC[C@@H](O4)[C@H](C)C(=O)O[C@H]4C[C@H]([C@]5(O)OCC[C@H](C)[C@@H]5O)O[C@H]4C=C1)O2)O3`: the TGI is more than 10 µM in the assay on NCI-H23 lung; more than 10 µM in the assay with ACHN renal; more than 6.85 µM with SNB-75 CNS; more than 10 µM in the assay with SW-620 colon; more than 10 µM in the assay on MOLT-4 leukemia; more than 10 µM in the assay with KM12 colon. In addition, the TGI with SNB-19 CNS, in the assay on T-47D breast, with SK-MEL-5 melanoma and in the assay on UACC-257 melanoma was more than 10 µM each time.

Consider `O=C1CCc2ccc3c(c21)CC1(Cc2ccccc2C1)C3`, for which the TGI in the assay with NCI-H23 lung is more than 100 µM; in the assay on ACHN renal, more than 100 µM; in the assay with SNB-75 CNS, more than 100 µM; in the assay with SW-620 colon it was more than 100 µM; with MOLT-4 leukemia it was more than 100 µM; with KM12 colon it was 46 µM. Further, the TGI with SNB-19 CNS is more than 100 µM; with T-47D breast it was 59.2 µM; in the assay with SK-MEL-5 melanoma it was 11.4 µM; with UACC-257 melanoma it was 35.7 µM.

For `OCC(O)C(O)C(O)/C=N/Nc1nc(O)c(/C=C2\C=Nc3ccccc32)[nH]1` (stereo not given), the TGI in the assay on NCI-H23 lung, in the assay with ACHN renal, in the assay on SNB-75 CNS, in the assay on SW-620 colon, in the assay on MOLT-4 leukemia and with KM12 colon was more than 100 µM in each case. The TGI in the assay on SNB-19 CNS, in the assay on T-47D breast, with SK-MEL-5 melanoma and with UACC-257 melanoma was more than 100 µM throughout.

With `Clc1ccc(Cl)c(SCCCN2CCNCC2)c1`, the TGI with NCI-H23 lung came out at 39.8 µM; in the assay with ACHN renal it was 31.1 µM; in the assay with SNB-75 CNS, 35.3 µM; in the assay on SW-620 colon, 56.7 µM; in the assay on MOLT-4 leukemia, 40.6 µM; in the assay with KM12 colon, 86.1 µM. Besides, the TGI with SNB-19 CNS is 34.4 µM; in the assay with T-47D breast, 58.1 µM; in the assay on SK-MEL-5 melanoma, 33.1 µM; in the assay with UACC-257 melanoma, 26.5 µM.

With `CCc1nc2cc3cccnc3c(Cl)c2[nH]c1=O`, the TGI in the assay on NCI-H23 lung is more than 100 µM; in the assay with ACHN renal it was more than 100 µM; in the assay with SNB-75 CNS, 50.4 µM; in the assay with SW-620 colon, more than 100 µM; in the assay on MOLT-4 leukemia it was more than 100 µM; with KM12 colon, more than 100 µM. Moreover, the TGI with SNB-19 CNS, in the assay on T-47D breast, in the assay on SK-MEL-5 melanoma and in the assay on UACC-257 melanoma was more than 100 µM each time.

`COC(=O)C(CC(C)C)NC(=O)C(N)Cc1ccc(OCc2ccccc2)cc1` (stereo not given) (H-Tyr(Bn)-Leu-OMe; configuration not given here): the TGI with NCI-H23 lung, with ACHN renal, with SNB-75 CNS, with SW-620 colon, in the assay on MOLT-4 leukemia and with KM12 colon was more than 10 µM in each case. The TGI in the assay with SNB-19 CNS, in the assay with T-47D breast, with SK-MEL-5 melanoma and in the assay with UACC-257 melanoma was more than 10 µM throughout.

Source of the values: PubChem BioAssay (NCI).
